{"source": "patent US20170224819A1", "about": "“Therapeutic Combinations of a BTK Inhibitor, a PI3K Inhibitor, a JAK-2 Inhibitor, and/or a CDK 4/6 Inhibitor” (Acerta Pharma B.V., priority 2014, published 2017)", "key": {"ID8 ovarian cancer [1]": {"tested_on": "ID8 ovarian cancer", "assay": "ID8 syngeneic orthotropic ovarian cancer model", "type": "in vivo, mice", "text": "FIG. 108 illustrates the effects of vehicle on flux at two timepoints, as a control for comparison with FIG. 109, in the ID8 syngeneic orthotropic ovarian cancer model."}, "[2]": {"assay": "In vitro metabolism in hepatocytes with 14C-labeled compound", "type": "in vitro ADME, mouse, rat, dog, rabbit, monkey, and human"}, "EGFR": {"biological_target": "EGFR (Homo sapiens, UniProt P00533)", "sequence (P00533 25-1210)": "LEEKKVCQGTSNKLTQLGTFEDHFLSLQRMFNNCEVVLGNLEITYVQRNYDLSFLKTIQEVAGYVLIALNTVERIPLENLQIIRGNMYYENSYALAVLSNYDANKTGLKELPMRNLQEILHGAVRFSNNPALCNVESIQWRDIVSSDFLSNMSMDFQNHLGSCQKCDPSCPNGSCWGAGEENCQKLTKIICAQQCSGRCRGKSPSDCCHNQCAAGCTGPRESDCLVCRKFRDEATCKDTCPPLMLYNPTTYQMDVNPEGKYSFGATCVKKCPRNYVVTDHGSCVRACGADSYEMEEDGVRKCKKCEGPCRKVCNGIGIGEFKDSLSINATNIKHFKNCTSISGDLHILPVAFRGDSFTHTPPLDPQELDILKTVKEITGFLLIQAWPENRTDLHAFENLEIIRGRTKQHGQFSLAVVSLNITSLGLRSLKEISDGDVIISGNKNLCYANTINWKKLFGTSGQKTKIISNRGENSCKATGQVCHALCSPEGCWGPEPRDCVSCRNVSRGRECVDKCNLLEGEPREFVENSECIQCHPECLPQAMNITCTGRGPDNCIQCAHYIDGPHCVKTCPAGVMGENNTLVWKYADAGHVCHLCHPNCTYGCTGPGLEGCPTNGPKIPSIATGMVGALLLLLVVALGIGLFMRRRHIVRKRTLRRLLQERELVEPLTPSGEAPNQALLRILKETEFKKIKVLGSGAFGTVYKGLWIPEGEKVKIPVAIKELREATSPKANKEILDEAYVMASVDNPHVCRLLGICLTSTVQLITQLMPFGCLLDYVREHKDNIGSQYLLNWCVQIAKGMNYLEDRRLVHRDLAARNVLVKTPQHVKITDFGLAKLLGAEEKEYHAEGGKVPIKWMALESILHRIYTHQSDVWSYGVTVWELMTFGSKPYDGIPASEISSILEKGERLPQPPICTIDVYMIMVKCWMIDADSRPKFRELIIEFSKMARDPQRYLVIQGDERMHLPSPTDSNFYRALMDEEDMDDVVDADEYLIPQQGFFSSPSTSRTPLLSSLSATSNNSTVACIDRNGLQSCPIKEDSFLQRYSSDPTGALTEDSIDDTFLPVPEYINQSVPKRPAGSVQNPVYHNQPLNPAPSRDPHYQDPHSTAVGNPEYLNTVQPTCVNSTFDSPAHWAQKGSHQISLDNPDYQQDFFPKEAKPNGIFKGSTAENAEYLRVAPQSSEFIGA", "assay": "EGF-induced EGFR phosphorylation in A431 cells (phosphoflow)", "details": "10 μM; A431 human epidermoid cancer cell line"}, "[3]": {"tested_on": "NSCLC (KrasLA2) lung tumors", "assay": "Genetic tumor model of NSCLC (KrasLA2)", "type": "in vivo, mice", "details": "15 mg/kg", "text": "The model is designed to have sporadic expression in single cells of G12D mutant Kras off its own promoter triggered by spontaneous intrachromosomal recombination. Johnson, et al. Nature 2001, 410, 1111-16. While the mutant Kras protein is expressed in a few cells in all tissues, tumor development is seen only in the lung at high penetrance."}, "Txk": {"biological_target": "Txk (Homo sapiens, UniProt P42681)", "sequence (P42681 whole entry)": "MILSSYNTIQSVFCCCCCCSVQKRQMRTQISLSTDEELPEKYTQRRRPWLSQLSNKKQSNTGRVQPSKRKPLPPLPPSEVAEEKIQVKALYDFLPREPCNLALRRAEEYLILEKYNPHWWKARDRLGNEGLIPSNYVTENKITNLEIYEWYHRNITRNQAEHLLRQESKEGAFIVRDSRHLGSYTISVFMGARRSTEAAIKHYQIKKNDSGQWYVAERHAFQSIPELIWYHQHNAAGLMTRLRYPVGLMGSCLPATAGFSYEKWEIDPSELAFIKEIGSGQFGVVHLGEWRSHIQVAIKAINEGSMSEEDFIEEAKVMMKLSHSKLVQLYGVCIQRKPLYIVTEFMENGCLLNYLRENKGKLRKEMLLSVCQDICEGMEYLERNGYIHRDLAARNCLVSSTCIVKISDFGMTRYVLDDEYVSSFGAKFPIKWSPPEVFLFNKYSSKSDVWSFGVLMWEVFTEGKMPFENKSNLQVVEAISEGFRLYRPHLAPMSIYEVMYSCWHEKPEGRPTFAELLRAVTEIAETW", "assay": "biochemical"}, "ID8 ovarian cancer [4]": {"tested_on": "ID8 ovarian cancer", "assay": "ID8 syngeneic orthotropic ovarian cancer murine model", "type": "in vivo, mice", "details": "15 mg/kg/BID orally", "text": "Human ovarian cancer models, including the ID8 syngeneic orthotropic ovarian cancer model and other animal models, are described in Fong and Kakar, J. Ovarian Res. 2009, 2, 12; Greenaway et al., Gynecol. Oncol. 2008, 108, 385-94; Urzua et al., Tumour Biol. 2005, 26, 236-44; Janat-Amsbury et al., Anticancer Res. 2006, 26, 3223-28; Janat-Amsbury et al., Anticancer Res. 2006, 26, 2785-89. […] The results of the study are shown in FIG. 108, FIG. 109, FIG. 110, FIG. 111, FIG. 112, FIG. 113, FIG. 114, and FIG. 115."}, "[5]": {"assay": "Glutathione binding and depletion in vitro", "type": "in vitro ADME"}, "[6]": {"tested_on": "chronic lymphocytic leukemia (CLL)", "assay": "Clinical study of Formula (XVIII) in relapsed/refractory CLL"}, "BCR": {"tested_on": "BCR", "assay": "In vivo potency: expression of activation markers CD69 and CD86 after BCR stimulation with IgM", "details": "compared with ibrutinib; mice gavaged, sacrificed 3 h post-dose; flow cytometry; FIG. 137", "procedure": "Mice were gavaged at increasing drug concentration and sacrificed at one time point (3 h post-dose). BCR is stimulated with IgM and the expression of activation markers CD69 and CD86 are monitored by flow cytometry to determine EC50's."}}, "data": [{"smiles": "CC#CC(=O)N1CCC[C@H]1c1nc(-c2ccc(C(=O)Nc3ccccn3)cc2)c2c(N)nccn12", "note": "[Formula (XVIII), (S)-4-(8-amino-3-(1-(but-2-ynoyl)pyrrolidin-2-yl)imidazo[1,5-a]pyrazin-1-yl)-N-(pyridin-2-yl)benzamide]", "values": [{"measurement": "immunosuppressive tumor associated Tregs", "setting": "ID8 ovarian cancer [1]; FIG. 114", "value": "significant reduction"}, {"measurement": "CD8+ T cells", "setting": "ID8 ovarian cancer [1]; FIG. 115", "value": "increase"}, {"measurement": "ID8 ovarian cancer growth", "setting": "ID8 ovarian cancer [1]; syngeneic murine model, in comparison to vehicle, FIG. 111", "value": "impairs"}, {"measurement": "immunosuppressive tumor associated lymphocytes", "setting": "ID8 ovarian cancer [1]; tumor-bearing mice, in comparison to vehicle, FIG. 110", "value": "significant reduction"}, {"measurement": "total B cells", "setting": "ID8 ovarian cancer [1]; tumor-bearing mice, FIG. 112", "value": "significant reduction"}, {"measurement": "B regulatory cells (Bregs)", "setting": "ID8 ovarian cancer [1]; tumor-bearing mice, FIG. 113", "value": "significant reduction"}, {"measurement": "Unique human metabolite", "setting": "[2]; hepatocytes", "value": "No unique human metabolite was identified"}, {"measurement": "Metabolites in hepatocytes", "setting": "[2]; mouse, rat, dog, rabbit, monkey, and human hepatocytes", "value": "two mono-oxidized metabolites and a glutathione conjugate"}, {"measurement": "Inhibition of in vitro EGFR phosphorylation", "setting": "EGFR", "value": "no inhibition"}, {"measurement": "Number of tumors", "setting": "[3]", "value": "fewer overall tumors"}, {"measurement": "Tumor volumes", "setting": "[3]", "value": "significant decrease in tumor volumes versus vehicle"}, {"measurement": "IC50", "setting": "Txk", "value": 0.291, "unit": "µM"}, {"measurement": "CD8+ T cells", "setting": "ID8 ovarian cancer [4]", "value": "increase in CD8^+ T cells"}, {"measurement": "ID8 ovarian cancer growth", "setting": "ID8 ovarian cancer [4]", "value": "impairs ID8 ovarian cancer growth"}, {"measurement": "Immunosuppressive B cells", "setting": "ID8 ovarian cancer [4]", "value": "significant reduction in immunosuppressive B cells"}, {"measurement": "Immunosuppressive tumor-associated lymphocytes", "setting": "ID8 ovarian cancer [4]", "value": "significant reduction in immunosuppressive tumor-associated lymphocytes"}, {"measurement": "Tumor associated Tregs", "setting": "ID8 ovarian cancer [4]", "value": "significant reduction in immunosuppressive tumor associated Tregs"}, {"measurement": "Glutathione binding and depletion", "setting": "[5]", "value": "binds to glutathione but does not deplete glutathione in vitro"}, {"measurement": "PD (progressive disease)", "setting": "[6]; 100 mg QD (N = 8)", "value": "0 (0) n (%)"}, {"measurement": "PD (progressive disease)", "setting": "[6]; 175 mg QD (N = 8)", "value": "0 (0) n (%)"}, {"measurement": "PD (progressive disease)", "setting": "[6]; 250 mg QD (N = 7)", "value": "0 (0) n (%)"}, {"measurement": "PD (progressive disease)", "setting": "[6]; All Cohorts (N = 31)", "value": "0 (0) n (%)"}, {"measurement": "PR (partial response)", "setting": "[6]; All Cohorts (N = 31)", "value": "22 (71) n (%)"}, {"measurement": "PR + L (partial response with lymphocytosis)", "setting": "[6]; All Cohorts (N = 31)", "value": "7 (23) n (%)"}, {"measurement": "Time of treatment at which the median % change in SPD achieved the same status", "setting": "[6]; CLL patients, present study", "value": 7, "unit": "months"}, {"measurement": "PFS (Kaplan-Meier) in comparison to ibrutinib", "setting": "[6]; CLL patients, Log-Rank p-value 0.0206", "value": "An improvement in survival and a reduction in risk"}, {"measurement": "Treatment-related adverse event: Headache", "setting": "[6]; Grade 1/2, All (N = 44)", "value": "7 (16) n (%)"}, {"measurement": "Treatment-related adverse event: Diarrhea", "setting": "[6]; Grade 1, All (N = 44)", "value": "4 (9) n (%)"}, {"measurement": "Dose-limiting toxicities (DLTs)", "setting": "[6]; human, in vivo", "value": "No DLTs were observed"}, {"measurement": "Grade of adverse events", "setting": "[6]; human, in vivo", "value": "only grade 1 AEs were observed"}, {"measurement": "Lymphocytosis", "setting": "[6]; human, in vivo", "value": "A lack of lymphocytosis was observed"}, {"measurement": "Treatment-related adverse event: Increased tendency to bruise", "setting": "[6]; human, in vivo", "value": "6 (14) n (%)"}, {"measurement": "Treatment-related adverse event: Petechiae", "setting": "[6]; human, in vivo", "value": "3 (7) n (%)"}, {"measurement": "Treatment-related serious adverse events (SAEs)", "setting": "[6]; human, in vivo", "value": "No treatment-related serious adverse events (SAEs) were observed"}, {"measurement": "Progression in patients with the 17p deletion", "setting": "[6]; to date", "value": "no 17p patients have progressed"}, {"measurement": "potency at inhibiting expression of activation markers CD69 and CD86", "setting": "BCR", "value": "more potent"}]}]}
